Here are results for nine compounds from US5155110A, “Fenamic acid hydroxamate derivatives having cyclooxygenase and 5-lipoxygenase inhibition” (Warner-Lambert Company, priority 1988, dated 1992).

Data set [1] has as its system Mycobacterium-induced rat footpad edema. As to the kind of experiment: Mycobacterium-Induced Rat Footpad Edema Assay (MFE). The conditions noted are these: PO, one hour before Mycobacterium and Days 1 and 2, swelling at 72 hours, read-out: MFE ID40. It is filed as in vivo. The method, then: Mycobacterium--Induced Rat Footpad Edema Assay (MFE): Protocol
Myobacterium butyricum (5 mg/ml) is suspended in paraffin oil by sonication for ten minutes in an ice bath. Footpad edema is induced on Day 0 by injecting 0.1 ml of the Mycobacterium mixture into the left hindpaw of lightly anesthetized rats. Swelling in the injected hindpaw is determined by mercury plethysmography 72 hours after injection. Groups of rats are treated with test compounds (suspended in 0.5% hydroxypropyl methylcellulose with 0.2% Tween-80) or vehicle one hour before Myobacterium injection and on Days 1 and 2. Inhibition of swelling is determined by comparing the change in hindpaw volume in compound- and vehicle-treated rats. […] (the dose at which swelling is inhibited by 40%) was calculated by probit analysis.

For data set [2], the system named is gastric ulcers in rats. The data set is described as follows: Gastric Ulcerogenicity (UD). It is filed as in vivo, rat. The conditions noted are these: @ 200 mg/kg PO, fasted male Wistar rats, six hours. The method, then: (§1) Gastric Ulcerogenicity (UD)
(§2) Male outbred Wistar rats (100-250 gms) were fasted for 24 hours. After fasting, test compounds were administered orally (in 2 ml/kg of 0.5% hydroxypropyl methylcellulose) and the rats were denied access to food and water for six more hours. The rats were then sacrificed with CO2 so that the stomachs could be removed, opened along the greater curvature, and evaluated for the presence of gastric ulcers. Results are expressed as the percent of rats with gastric ulcers at a given dose.

Data set [3] deals with T1, 5-lipoxygenase (Rattus norvegicus, UniProt P12527).
T1 construct: host or cells: RBL-1 (rat basophilic leukemia)
T1 sequence (P12527 1-673): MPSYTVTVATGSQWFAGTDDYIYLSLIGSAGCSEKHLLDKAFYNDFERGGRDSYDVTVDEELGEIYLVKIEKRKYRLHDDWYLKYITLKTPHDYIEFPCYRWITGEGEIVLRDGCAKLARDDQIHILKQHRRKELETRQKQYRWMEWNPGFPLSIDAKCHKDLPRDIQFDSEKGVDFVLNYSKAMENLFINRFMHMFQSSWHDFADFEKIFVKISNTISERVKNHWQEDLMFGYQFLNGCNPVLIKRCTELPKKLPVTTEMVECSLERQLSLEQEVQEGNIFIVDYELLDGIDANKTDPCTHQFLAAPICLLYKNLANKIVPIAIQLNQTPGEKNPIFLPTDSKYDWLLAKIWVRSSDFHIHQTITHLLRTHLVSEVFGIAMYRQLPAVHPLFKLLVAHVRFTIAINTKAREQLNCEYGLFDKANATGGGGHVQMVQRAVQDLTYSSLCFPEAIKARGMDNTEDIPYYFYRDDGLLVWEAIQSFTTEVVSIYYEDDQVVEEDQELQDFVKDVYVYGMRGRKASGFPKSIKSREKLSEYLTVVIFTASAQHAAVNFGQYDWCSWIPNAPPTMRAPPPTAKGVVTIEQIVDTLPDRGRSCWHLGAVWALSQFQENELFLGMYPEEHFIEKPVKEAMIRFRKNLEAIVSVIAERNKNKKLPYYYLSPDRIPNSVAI
The data set is described as follows: ARBL whole cell 5-lipoxygenase assay (LTB4 formation in RBL-1 cells). It is filed as cell-based. To be noted: RBL-1 whole cells; for IC50: A23187 5 μM, read-out: ARBL IC50 for LTB4 inhibition. As for the experimental part: (§3) ARBL/ARBC Whole Cell 5-Lipoxygenase and Cyclooxygenase Assays
(§4) The rat basophilic leukemia cell line (RBL-1) was obtained from the American Type Culture Collection (Rockville, Md.).
(§5) Radioimmuno assay (RIA) kits of LTB4 and PGF2.sbsb.α were obtained from Amersham (Arlington Heiqhts, Ill.) and Seragen (Boston, Mass.) respectively.
(§6) All tissue culture media were obtained from GIBCO (Grand Island, N.Y.).
(§7) RBL-1 cells are grown in suspension culture in Eagle's minimum essential medium supplemented with 12% fetal bovine serum at 37° C. in an incubator supplied with air-5% carbon dioxide. Cells are harvested by centrifugation. They are washed with cold phosphate buffered saline pH 7.4 (PBS; NaCl, […]; Na2 HPO4, 1.15 g; KH2 PO4, 0.2 g; and KCl, 0.2 g/l). Cells are finally suspended in PBS containing 1.0 mM calcium at a density of 2×10^6 cells/ml. Cells are incubated with and without test agent (in DMSO) (1% DMSO is without effect on arachidonic acid metabolism) for ten minutes at room temperature. Calcium ionophore A23187 (5 μM) is added and cells are incubated for seven minutes at 37° C. The reaction is stopped by chilling the tubes on ice for ten minutes. Cells are separated by centrifugation and the supernatant is stored at -20°. Aliquots (100 μl) are analyzed for LTB4 and PGF2.sbsb.α using radioimmuno assay kits as provided by the supplier.

Data set [4] relates to carrageenan-induced rat foot paw edema. As to the kind of experiment: Carrageenan-Induced Rat Foot Paw Edema (CFE-2). It is filed as in vivo. To be noted: 5 h, read-out: CFE-2 ID25. As for the experimental part:
Carrageenan-Induced Rat Foot Paw Edema2 (CFE2)
Carrageenan solution (1% w/v) is prepared by dissolving 100 mg carrageenan (Marine Colloidal Div., Springfield, N.J.) in 10 ml of sterile saline (0.9%) solution (Travenol). The solution is vortexed for 30 to 45 minutes. Animals are dosed with compound one hour before carrageenan challenge. Foot paw edema is induced by injecting 0.05 ml of the 1% carrageenan subcutaneously into the plantar portion of the right hind paw of each rat under light anesthesia. Initial foot paw volume is measured immediately following carrageenan challenge using mercury plethysmography (Buxco Electronics). Edema is measured five hours after carrageenan. The difference between the five-hour and the initial paw volume is expressed as delta edema. The delta edema for each test group of animals is used to calculate the percent inhibition of edema achieved by the compound at the test dose compared with the vehicle control group. The ID25 (the dose at which swelling is inhibited by 25%) was calculated by probit analysis for the dose at which a result of 25 percent inhibition occurs.

Data set [5] deals with T2, cyclooxygenase (Rattus norvegicus, UniProt Q63921).
T2 construct: host or cells: RBL-1 (rat basophilic leukemia)
T2 sequence (Q63921 27-602): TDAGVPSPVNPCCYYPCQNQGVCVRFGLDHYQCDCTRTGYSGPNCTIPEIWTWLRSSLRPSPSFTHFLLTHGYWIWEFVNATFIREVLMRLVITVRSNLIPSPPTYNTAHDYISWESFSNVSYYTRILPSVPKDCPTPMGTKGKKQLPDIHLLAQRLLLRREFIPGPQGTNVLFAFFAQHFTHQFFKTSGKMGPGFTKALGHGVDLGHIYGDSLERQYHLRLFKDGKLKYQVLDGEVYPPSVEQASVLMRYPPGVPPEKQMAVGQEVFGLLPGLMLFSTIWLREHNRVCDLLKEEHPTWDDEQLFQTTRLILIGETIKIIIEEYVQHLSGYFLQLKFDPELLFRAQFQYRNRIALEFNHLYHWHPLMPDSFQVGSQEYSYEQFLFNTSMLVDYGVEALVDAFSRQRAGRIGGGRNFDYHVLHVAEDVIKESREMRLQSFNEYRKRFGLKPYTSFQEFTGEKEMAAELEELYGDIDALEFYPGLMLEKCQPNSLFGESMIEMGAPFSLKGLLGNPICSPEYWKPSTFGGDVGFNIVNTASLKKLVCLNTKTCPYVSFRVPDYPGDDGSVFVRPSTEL
As to the kind of experiment: ARBC whole cell cyclooxygenase assay (PGF2α formation in RBL-1 cells). The conditions noted are these: RBL-1 whole cells; for IC50: A23187 5 μM, read-out: ARBC IC50 for PGF2α inhibition. The class given is cell-based. The method, then: as §3, §4, §5, §6
as §7, with “Cells are finally suspended in PBS containing 1.0 mM calcium at a density of 2×10^6 cells/ml. Cells are incubated with and without test agent (in DMSO) (1% DMSO is without effect on arachidonic acid metabolism) for ten minutes at room temperature.” left out

A short description of data set [6]: Gastric Ulcerogenicity (UD). It is filed as in vivo, rat. To be noted: rat, in vivo; fasted male Wistar rats, PO, six hours; read-out: UD50 (dose which produces a 50% occurrence of ulcers in rats). The method, then:
as §1, §2

[7] abbreviates: rat, PO, dosed one hour before carrageenan, edema at five hours.

Each structure is given as a SMILES string. Read-outs that look alike come from different tables or passages of the source.

For the compound `Cc1ccc(Cl)c(Nc2ccccc2C(=O)N(O)Cc2ccccc2)c1Cl` [Example 1, 2-[(2,6-Dichloro-3-methylphenyl)amino]-N-hydroxy-N-phenylmethylbenzamide], in data set [1], the ED40 came to 27 mg/kg. For the same compound, the “UD: percent of rats with gastric ulcers” value in data set [2] is “N (N is 0% of rats have ulcers occurring at 200 mg.)”.

In general, IC50 refers to the concentration at which inhibition is half-maximal. Turning to `Cc1ccc(Cl)c(Nc2ccccc2C(=O)NO)c1Cl` [Example 2, 2-[(2,6-dichloro-3-methylphenyl)amino]-N-hydroxybenzamide], the ED40 in data set [1] stood at 2.5 mg/kg. Also, the IC50 in data set [3] is 3.9 µM. Also, the “UD: percent of rats with gastric ulcers” value in data set [2] is “N (N is 0% of rats have ulcers occurring at 200 mg.)”. In addition, the ED25 in data set [4] (setting [7]) was determined as 0.2 mg/kg.

Take `Cc1ccc(Cl)c(Nc2ccccc2C(=O)N(C)O)c1Cl` [Example 3, 2-[(2,6-dichloro-3-methylphenyl)amino]-N-hydroxy-N-methylbenzamide]: the ED40 in data set [1] was found to be 24 mg/kg. Besides, the IC50 in data set [3] is 1.5 µM. Also, the “UD: percent of rats with gastric ulcers” value in data set [2] was “N (N is 0% of rats have ulcers occurring at 200 mg.)”. Besides, the ED25 in data set [4] (setting [7]) was 1.3 mg/kg.

On to `CONC(=O)c1ccccc1Nc1c(Cl)ccc(C)c1Cl` [Example 4, Ortho-2,6-dichloro-3-methylanilinobenzhydroxamic acid O-methyl ether], for which, in data set [3], the IC50 is 16 µM.

Usually inhibition stands for the share of the control response that was lost under treatment. The compound `Cc1cccc(Nc2ccccc2C(=O)NO)c1C` [Example 9, 2-[(2,3-dimethylphenyl)amino]-N-hydroxybenzamide] displayed an inhibition at 0.5 µM in data set [5] (@ 0.5 μM) of 60%. Further, the IC50 in data set [3] was 1.8 µM.

For `O=C(NO)c1ccccc1Nc1c(Cl)cccc1Cl` [Example 10, 2-[(2,6-dichlorophenyl)amino]-N-hydroxybenzamide], the values for the inhibition at 16 µM in data set [5] (@ 16 μM) and in data set [3] (@ 16 μM) were 80% and 88%, respectively.

Consider `Cc1ccc(Cl)c(N2CN(O)C(=O)c3ccccc32)c1Cl` [Example 35, 1-(2,6-dichloro-3-methylphenyl)-2,3-dihydro-3-hydroxy-4(1H)-quinazolinone], for which the concentration for half-maximal inhibition (IC50) came out at 2.2 µM in data set [5] and 3.2 µM in data set [3].

Consider `Cc1ccc(Cl)c(N2C(=O)C(=NO)c3ccccc32)c1Cl` [Example 49, 1-(2,6-Dichloro-3-methylphenyl)-lH-indole-2,3-dione-3-oxime], for which the IC50 in data set [5] was 28 µM; in data set [3] it was 6.5 µM.

As for `Cc1ccc(Cl)c(Nc2ccccc2C(=O)O)c1Cl` [Meclomen, reference compound], the ED40 in data set [1] was 0.39 mg/kg. The IC50 in data set [3] worked out at 24 µM. Further, the TD50 at 6 h in data set [6] stood at 36 mg/kg. The ED25 in data set [4] (Rattus norvegicus, po) worked out at 8.2 mg/kg.
